Assay results: US9828343B2, “Histone demethylase inhibitors” (Celgene Quanticel Research, Inc., priority 2012, dated 2017)

Target: JMJD2C (Homo sapiens (Human), UniProt Q9H3R0)
Experiment: JMJD2C TR-FRET in vitro enzyme inhibition assay
Assay type: biochemical
Details: 0.3 nM JMJD2C, H3K9me3-biotin peptide, 2 μM alpha-ketoglutaric acid
Text: This assay determines the ability of a test compound to inhibit Jarid1A, Jarid1B, and JMJD2C demethylase activity. Baculovirus expressed Jarid1A (GenBank Accession #NM_001042603, AA1-1090) was purchased from BPS Bioscience (Cat#50110). Baculovirus expressed Jarid1B (GenBank Accession #NM_006618, AA 2-751) was purchased from BPS Bioscience (Cat #50121) or custom made by MolecularThroughput. Baculovirus-expressed JMJD2C (GenBank Accession #BC143571, AA 2-372) was purchased from BPS Bioscience (Cat#50105).
The ability of test compounds to inhibit the activity of JMJD2C was determined in 384-well plate format under the following reaction conditions: 0.3 nM JMJD2C, 300 nM H3K9me3-biotin labeled peptide (Anaspec cat #64360), 2 μM alpha-ketoglutaric acid in assay buffer of 50 mM HEPES, pH7.3, 0.005% Brij35, 0.5 mM TCEP, 0.2 mg/ml BSA, 50 μM sodium L-ascorbate, and 2 μM ammonium iron(II) sulfate. Reaction product was determined quantitatively by TR-FRET after the addition of detection reagent Phycolink Streptavidin-allophycocyanin (Prozyme) and Europium-anti-di-methylated histone H3 lysine 9 (H3K9me2) antibody (PerkinElmer) in the presence of 5 mM EDTA in LANCE detection buffer (PerkinElmer) at a final concentration of 50 nM and 1 nM, respectively. […]

JMJD2C, sequence (Q9H3R0 2-372): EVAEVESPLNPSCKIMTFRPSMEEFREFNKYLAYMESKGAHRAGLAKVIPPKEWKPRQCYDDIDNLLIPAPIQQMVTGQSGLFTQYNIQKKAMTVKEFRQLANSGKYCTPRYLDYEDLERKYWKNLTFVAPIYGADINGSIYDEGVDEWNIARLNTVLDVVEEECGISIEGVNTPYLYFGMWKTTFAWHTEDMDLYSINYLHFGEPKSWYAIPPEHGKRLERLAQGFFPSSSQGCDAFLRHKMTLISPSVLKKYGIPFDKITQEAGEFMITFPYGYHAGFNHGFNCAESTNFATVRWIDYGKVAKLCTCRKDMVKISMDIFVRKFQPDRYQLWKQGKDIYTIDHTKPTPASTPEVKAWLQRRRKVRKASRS

Molecule	IC50
3-{[(6-fluoro-3,4-dihydro-2H-chromen-4-yl)methyl]amino}pyridine-4-carboxylic acid [Example 65]	< 100 nM
O=C(O)c1ccncc1NCC1(O)CCCc2cc(Cl)ccc21 (centres unmarked) [Example 68, 3-{[(6-chloro-1-hydroxy-1,2,3,4-tetrahydronaphthalen-1-yl)methyl]amino}pyridine-4-carboxylic acid]	100 to 1000 nM
